Source: patent EP4759810A1, “PROTAC TARGETING BCL-XL PROTEIN AND USE THEREOF” (BEIJING SUNCELL BIO-MEDICAL CO., LTD., priority 2023, dated 2025)

Assay: Metabolic stability assay in liver microsomes (human)
Assay type: in vitro ADME
In short: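 Human or mouse liver microsomes at 0.5 mg/mL with 1 µM compound at 37 °C, plus or minus NADPH; samples at 0–60 min quenched in cold acetonitrile with internal standards, analysed by LC-MS/MS. Half-life and intrinsic clearance from linear fit of ln % remaining versus time.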

[1] = human liver microsomes 0.5 mg/mL, 1 µM compound, 37°C

O=C1CCC(N2C(=O)c3cccc(NCCN4CCC(CN5CCN(CC#Cc6ccc(OCCCc7ccc(N8CCc9cccc(C(=O)Nc%10nc%11ccccc%11s%10)c9C8)nc7C(=O)O)c(F)c6)CC5)CC4)c3C2=O)C(=O)N1 (stereo not drawn) [APQ2]
Clint [1]: 2.77 µL/min/mg protein | half-life at 1 µM [1]: 8.34 h | microsomal CLint at 1 µM (human liver microsomes, read-out: clearance rate (metabolic clearance rate)): 2.77 µL/min/mg
